Measured values: patent US20120196918A1, “PREVENTING ISLET INFLAMMATION AND DYSFUNCTION AND MAINTAINING PROPER GLUCOSE LEVELS BY CONTROLLING eIF5A AND ITS HYPUSINATION” (priority 2009, published 2012)

Key:
[1] = test system: C57BL/6J mouse islets; assay: GSIS and GSCa of islets isolated from siRNA-injected mice; format: cell-based
Method: (§1) To clarify this, islets were isolated from siRNA-injected mice and their function assessed in vitro. […] In order to further characterize this improvement in islet glucose responsiveness, glucose-stimulated Ca2+ mobilization (GSCa) studies were also performed. GSCa is a measure of islet glucose sensitivity that captures the dynamics of the islet glucose response, which is similar to GSIS (31). The GSCa, as measured by the change in fura-2 AM fluorescence ratio after glucose stimulation, was increased in si-eIF5A-treated islets compared to controls, reflecting the functional improvement seen in GSIS (FIG. 3D). This improved GSCa relative to controls persisted 48 and 72 hours post-isolation (data not shown).
A short cytokine exposure (4 h) was utilized to assess early impairment in islet function independent of islet cell death. […] As shown in the inset to FIG. 3E, eIF5A levels remained persistently lower in the si-eIF5A group even after cytokine exposure.
(§2) Cytokine and inhibitor incubation studies: For cytokine incubation assays, a 1000× cocktail of cytokines containing 5 μg/ml IL1β, 10 μg/ml TNFα, and 100 μg/ml IFNγ (all prepared in 0.1% BSA in Tris-buffered saline) was applied at 1× final concentration to groups of 50 islets or 1×10^6 INS-1 (832/13) cells for a total of 4 h at 37° C. For GC7 incubation studies, GC7 was prepared at a stock concentration of 125 mM in 10 mM acetic acid and applied to cultures of 50 islets or 1×10^6 INS-1 cells to obtain the final concentrations indicted in the figures. Where needed, GC7 was protected from amine oxidases in serum by addition of 1 mM aminoguanidine (Sigma). Cells were incubated with GC7 overnight (˜16 h) at 37° C. prior to analysis. Cells were exposed to Leptomycin B (Cayman Chemicals) for 3 hours; leptomycin B was prepared at a 1000× stock concentration of 20 μg/ml in ethanol.
(§3) GSCa imaging assays: Intracellular Ca^2+ ((Ca2+)i) was measured using the ratiometric Ca^2+ indicator fura-2 AM using a modification of previously published methods (79). The glucose-stimulated (Ca2+)i response (GSCa) was defined as the difference between ratio measurements (340/380 nm fluorescence) in 11 mM vs. 3 mM glucose. Data were analyzed with IP Lab's software version 4.0 (Scanalytics).
GSIS and IPGTT studies: For GSIS studies using isolated islets, approximately 50 islets or 1×10^6 INS-1 cells per condition were washed and incubated in Krebs-Ringer HEPES-buffered (KRB) solution for one hour at 37° C., and then placed in KRB solution containing 3 mM or 11 mM glucose for one hour. […] Blood glucose was measured from samples taken from the tail vein before intraperitoneal injection of 1 g glucose per kg mouse weight, and at 10, 20, 30, 60, 90, 120, and 180 minutes after glucose administration using an A1phaTrak® glucometer (Abbott).

[2] = test system: eIF5A; assay: eIF5A and eIF5A-Hyp levels in islets isolated from siRNA-injected mice (immunoblot, 3H-spermidine); format: in vivo, mouse; settings: si-eIF5A i.p. for three days
Method: as §1, with “shown). […]” for “shown).”
Immunoblot and nitrite and iNOS assays: Whole cell extracts were resolved by electrophoresis on a 4-20% SDS-polyacrylamide gel, followed by immunoblot using anti-eIF5A1, anti-eIF5A2, anti-iNOS, anti-GFP, or anti-actin primary antibodies and fluorophore-labeled secondary antibodies. Immunoblots were visualized using the Li-Cor® Odyssey® system (Li-Cor Biosciences) and quantitated by scanning fluorometry using Odyssey Imaging v. […] Nitrite was quantitated by measuring nitric oxide-derived nitrite from INS-1 cell culture medium using the Griess reagent (Promega) according to the manufacturer's recommendations. iNOS activity was measured using a commercially available kit (Cayman). […]

[3] = test system: eIF5A-Hyp; assay: New hypusine formation (3H-spermidine incorporation) in mouse islets; format: cell-based; settings: GC7 125 μM overnight
Description: eIF5A1 and eIF5A2 are the only proteins known to contain the unique amino acid hypusine at position 50. Hypusine is formed as a posttranslational modification of residue Lys50 in a reaction requiring spermidine and catalyzed by the sequential actions of the enzymes deoxyhypusine synthase (DHS) and deoxyhypusine hydroxylase (DOHH) (Chen, K Y, and Liu, A Y. Biochemistry and function of hypusine formation on eukaryotic initiation factor 5A. Biol Signals. 1997; 6(3):105-109). […] To further investigate the mechanism of eIF5A-regulated translation of Nos2, studies were performed following overnight incubation of cells with mimosine (an inhibitor of DOHH) and GC7 (an inhibitor of DHS). […] Similar data using GC7 were obtained in primary mouse islets (data not shown) and in human islets (FIGS. 5F and 5G). […]
Measurement of hvpusination: Approximately 100 islets or 1×10^6 INS-1 cells per condition were incubated with 1.5 μCi ^3H-spermidine (Perkin Elmer) in the presence of 1 mM aminoguanidine. […] Gels were visualized by fluorography, and bands were quantitated using Kodak Molecular Imaging Software v. […]

[4] = test system: iNOS; assay: Nitrite release into INS-1 cell medium (Griess reagent); format: cell-based, rat; settings: increasing GC7 concentrations, cytokines 4 h; greatest inhibition at 125 μM
Description: eIF5A1 and eIF5A2 are the only proteins known to contain the unique amino acid hypusine at position 50. Hypusine is formed as a posttranslational modification of residue Lys50 in a reaction requiring spermidine and catalyzed by the sequential actions of the enzymes deoxyhypusine synthase (DHS) and deoxyhypusine hydroxylase (DOHH) (Chen, K Y, and Liu, A Y. Biochemistry and function of hypusine formation on eukaryotic initiation factor 5A. Biol Signals. 1997; 6(3):105-109). […] To further investigate the mechanism of eIF5A-regulated translation of Nos2, studies were performed following overnight incubation of cells with mimosine (an inhibitor of DOHH) and GC7 (an inhibitor of DHS). […]
Immunoblot and nitrite and iNOS assays: Whole cell extracts were resolved by electrophoresis on a 4-20% SDS-polyacrylamide gel, followed by immunoblot using anti-eIF5A1, anti-eIF5A2, anti-iNOS, anti-GFP, or anti-actin primary antibodies and fluorophore-labeled secondary antibodies. Immunoblots were visualized using the Li-Cor® Odyssey® system (Li-Cor Biosciences) and quantitated by scanning fluorometry using Odyssey Imaging v. […] Nitrite was quantitated by measuring nitric oxide-derived nitrite from INS-1 cell culture medium using the Griess reagent (Promega) according to the manufacturer's recommendations. iNOS activity was measured using a commercially available kit (Cayman).

[5] = test system: INS-1 cells; assay: GSCa and GSIS of INS-1 cells exposed to cytokines; format: cell-based, rat; settings: preincubation with 125 μM GC7, cytokines 4 h
Method: GSCa and GSIS studies were carried out to assess INS-1 cell function in the presence of cytokines and GC7. […] This asynchronous pattern may be related to the dispersed nature of insulinoma cells compared to f3 cells in an intact islet.
as §2, with “Cells were exposed to Leptomycin B (Cayman Chemicals) for 3 hours; leptomycin B was prepared at a 1000× stock concentration of 20 μg/ml in ethanol.” left out
as §3, with “(Scanalytics). […]” for “(Scanalytics).”

[6] = IL-1β, TNFα, IFNγ for 4 h, compared to controls

| Compound | GSCa of isolated islets after cytokines [1, 6] | GSIS of isolated islets after cytokines [1, 6] | glucose-stimulated insulin secretion (GSIS) of isolated islets ([1]; islets from siRNA-injected mice, no cytokines) | glucose-stimulated Ca2+ mobilization (GSCa) of isolated islets ([1]; islets from siRNA-injected mice, no cytokines, compared to controls) | reduction of eIF5A in islets [2] [%] | new hypusine formation in mouse islets [3] | nitrite release into the medium [4] | GSCa and GSIS after cytokines [5] |
| --- | --- | --- | --- | --- | --- | --- | --- | --- |
| 5′-AACGGAAUGACUUCCAGCUGA-3′ (siSTABLE modification, further chemistry not given here) [si-eIF5A] | significant preservation | significant preservation | significant improvement in islet response to glucose stimulation | increased | ~50 | – | – | – |
| NCCCCCCCN=C(N)N [GC7] | – | – | – | – | – | effectively inhibits new hypusine formation | dose-dependent attenuation | reverses the suppressive effect of cytokines on GSCa and GSIS almost completely |
